For one data set, the system named is PC3 prostate cancer cell. The experiment in a line: MTT cell viability assay, PC3 prostate cancer cell. Type of data set: cell-based. As for the experimental part:
(§1) Cell viability was evaluated by measuring the reduction in MTT to yield blue formazan. Cells were cultured in 96-well plates, allowed to attach overnight, and then treated with compounds. After treatment, MTT solution (1 mg/ml) was added to each well, and plates were incubated for another 4 h. Medium were removed, blue formazan was dissolved in DMSO, and the absorbance was read at 570 nm^20.
(Tetrazolium assays rely on reduction of a dye to a coloured formazan, in cell work by metabolically active cells.)

Data set [1] relates to HCT-116 colon cancer cell. The data set is described as follows: MTT cell viability assay, HCT-116 colon cancer cell. Particulars: Homo sapiens. The class given is cell-based. As for the experimental part: as §1
Data set [2] has as its system MDA-MB-231 breast cancer cell. The experiment in a line: MTT cell viability assay, MDA-MB-231 breast cancer cell. Particulars: Homo sapiens. The class given is cell-based, human. As for the experimental part: Cell viability was evaluated by measuring the reduction in MTT to yield blue formazan. Cells were cultured in 96-well plates, allowed to attach overnight, and then treated with compounds. After treatment, MTT solution (1 mg/ml) was added to each well, and plates were incubated for another 4 h.

Setting [3] is: PC-3, treated 24 hours, read-out: IC50 24 hours.
[4] abbreviates: PC-3, treated 48 hours, read-out: IC50 48 hours.
Where [5] appears, read: PC-3, treated 72 hours, read-out: IC50 72 hours.
Where [6] appears, read: HCT-116, treated 24 hours, read-out: IC50 24 hours.
Setting [7] is: HCT-116, treated 48 hours, read-out: IC50 48 hours.
The mark [8] stands for this setting: HCT-116, treated 72 hours, read-out: IC50 72 hours.
[9] abbreviates: MDA-MB-231, 24 h, MDA-MB-231, treated 24 hours, read-out: IC50 24 hours.
Setting [10] is: MDA-MB-231, 48 h, MDA-MB-231, treated 48 hours, read-out: IC50 48 hours.
The mark [11] stands for this setting: MDA-MB-231, 72 h, MDA-MB-231, treated 72 hours, read-out: IC50 72 hours.

SMILES strings stand for the structures. Like-named read-outs stand apart in the source and are kept apart here.

With `COc1cc(/C=C/C(O)=C/C(=O)/C=C/c2ccc(OC(=O)C(C)(CO)CO)c(OC)c2)ccc1O` [Compound 21b, 4-((1E,4Z,6E)-5-Hydroxy-7-(4-hydroxy-3-methoxyphenyl)-3-oxohepta-1,4,6-trien-1-yl)-2 methoxyphenyl 3-hydroxy-2-(hydroxymethyl)-2-methylpropanoate], the melting point (commonly the temperature, or range, at which the solid turns liquid) was 104 to 105 °C. Moreover, the IC50 (usually the concentration at which inhibition is half-maximal) with PC3 prostate cancer cell (setting [3]) came to 24.6 ± 0.83 µM. In the data set on PC3 prostate cancer cell (setting [4]), the IC50 was determined as 26.8 ± 0.74 µM. In addition, the IC50 in the data set on PC3 prostate cancer cell (setting [5]) was determined as 17.4 ± 1.37 µM. For the same molecule, the IC50 in data set [1] (setting [6]) was found to be 35.6 ± 2.5 µM. In data set [1] (setting [7]), the IC50 stood at 20.4 ± 0.61 µM. The IC50 in data set [1] (setting [8]) stood at 15.5 ± 0.16 µM. Moreover, the IC50 in data set [2] (setting [9]) was 13.2 ± 1.2 µM. In addition, the 50% inhibitory concentration (IC50) in data set [2] (setting [10]) was determined as 9.97 ± 1.12 µM. Moreover, the IC50 in data set [2] (setting [11]) amounted to 5.94 µM.

In turn, `CCC(CO)(CO)C(=O)Oc1ccc(/C=C/C(=O)/C=C(O)/C=C/c2ccc(O)c(OC)c2)cc1OC` [Compound 22b, 4-((1E,4Z,6E)-5-Hydroxy-7-(4-hydroxy-3-methoxyphenyl)-3-oxohepta-1,4,6-trien-1-yl)-2-methoxyphenyl 2,2-bis(hydroxymethyl)butanoate] displayed a melting point of 82 to 83 °C. Besides, the IC50 in the data set with PC3 prostate cancer cell (setting [3]) came out at 13.8 ± 1.48 µM. Besides, the IC50 in the data set with PC3 prostate cancer cell (setting [4]) turned out to be 14.4 ± 0.82 µM. Moreover, the IC50 in the data set with PC3 prostate cancer cell (setting [5]) amounted to 12.5 ± 0.1 µM. Moreover, the IC50 in data set [1] (setting [6]) is 21.2 ± 2.48 µM. Also, in data set [1] (setting [7]), the IC50 came to 12.4 ± 0.16 µM. Moreover, in data set [1] (setting [8]), the IC50 was found to be 11.4 ± 1.05 µM. In addition, the IC50 in data set [2] (setting [9]) turned out to be 14.6 ± 2.42 µM. Also, the IC50 in data set [2] (setting [10]) worked out at 7.55 ± 0.86 µM. In addition, the 50% inhibitory concentration (IC50) in data set [2] (setting [11]) amounted to 4.66 µM.

With `COc1cc(/C=C/C(=O)C(COC(C)=O)(COC(C)=O)C(=O)/C=C/c2ccc(OC(=O)C(C)(CO)CO)c(OC)c2)ccc1OC(=O)C(C)(CO)CO` [Compound 41, ((1E,6E)-4,4-bis(acetoxymethyl)-3,5-dioxohepta-1,6-diene-1,7-diyl)bis(2-methoxy-4,1-phenylene) bis(3-hydroxy-2-(hydroxymethyl)-2-methylpropanoate)], the 50% inhibitory concentration (IC50) is 65.2 ± 1.43 µM in the data set on PC3 prostate cancer cell (setting [3]); 47.4 ± 2.65 µM in the data set with PC3 prostate cancer cell (setting [4]); 32.8 ± 2.7 µM in the data set with PC3 prostate cancer cell (setting [5]); 9.52 ± 0.06 µM in data set [1] (setting [6]); 5.4 ± 0.02 µM in data set [1] (setting [8]); 57.6 ± 1.59 µM in data set [2] (setting [9]). Further, the half-maximal inhibitory concentration (IC50) in data set [2] (setting [11]) turned out to be 3.69 ± 0.02 µM.

Consider `COc1ccc(/C=C/C(=O)C(CO)(CO)C(=O)/C=C/c2ccc(OC)c(OC)c2)cc1OC` [Compound 42, (1E,6E)-1,7-bis(3,4-dimethoxyphenyl)-4,4-bis(hydroxymethyl)hepta-1,6-diene-3,5-dione], for which the IC50 came out at 77.2 ± 2.34 µM in the data set with PC3 prostate cancer cell (setting [3]); 61.2 ± 2.3 µM in the data set on PC3 prostate cancer cell (setting [4]); 26.1 ± 0.81 µM in the data set with PC3 prostate cancer cell (setting [5]); 89.65 ± 0.49 µM in data set [1] (setting [6]); 8 ± 0.6 µM in data set [1] (setting [7]); 7.18 ± 0.68 µM in data set [1] (setting [8]). The IC50 was greater than 100 µM in data set [2] (setting [9]) and 9.02 ± 1.13 µM in data set [2] (setting [11]).

Turning to `COc1ccc(/C=C/C(=O)C(COC(=O)C(C)(CO)CO)(COC(=O)C(C)(CO)CO)C(=O)/C=C/c2ccc(OC)c(OC)c2)cc1OC` [Compound 43, 2,2-bis((E)-3-(3,4-dimethoxyphenyl)acryloyl)propane-1,3-diylbis(3-hydroxy-2-(hydroxymethyl)-2-methylpropanoate)], the IC50 in the data set with PC3 prostate cancer cell (setting [3]) turned out to be 67.7 ± 1.76 µM; with PC3 prostate cancer cell (setting [4]), 52.2 ± 1.23 µM; with PC3 prostate cancer cell (setting [5]) it was 51.3 ± 0.39 µM; in data set [1] (setting [6]), 64.7 ± 1.56 µM; in data set [1] (setting [8]), 25.1 ± 0.5 µM; in data set [2] (setting [9]), 83 ± 0.17 µM. In addition, in data set [2] (setting [11]), the IC50 stood at 17.3 ± 0.1 µM.

In the case of `COc1ccc(/C=C/C(=O)C(COC(C)=O)(COC(C)=O)C(=O)/C=C/c2ccc(OC)c(OC)c2)cc1OC` [Compound 44, 2,2-bis((E)-3-(3,4-dimethoxyphenyl)acryloyl)propane-1,3-diyl diacetate], the IC50 came out at 3.68 ± 0.11 µM in the data set with PC3 prostate cancer cell (setting [3]); 3.07 ± 0.37 µM with PC3 prostate cancer cell (setting [4]); 0.85 ± 0.07 µM with PC3 prostate cancer cell (setting [5]); 6.33 ± 1.01 µM in data set [1] (setting [6]); 3.66 ± 0.25 µM in data set [1] (setting [7]); 1.51 ± 0.55 µM in data set [1] (setting [8]). Also, the concentration for half-maximal inhibition (IC50) in data set [2] (setting [9]) amounted to 7.21 ± 0.18 µM; in data set [2] (setting [10]), 0.9 ± 0.03 µM; in data set [2] (setting [11]), 0.61 ± 0.1 µM.
